This is an account of results in patent US9024041B2, “P38 MAP kinase inhibitors” (Respivert Ltd., priority 2010, dated 2015).

Entries after “also recorded” stand apart in the source; their conditions may differ. Marks after values point to notes of the source that are not given here.

The test system of series [1] is LPS-induced IL-8 release in d-U937 cells. Nature of the series: LPS-induced IL-8 release in d-U937 cells. Format: cell-based. Conditions: Homo sapiens, dU937, 0.1 μg/mL LPS, 4 hr. In short, it runs like this: (§1)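 U937 cells differentiated with PMA (100 ng/mL, 48–72 hr), pre-incubated with compound 2 hr, then stimulated with 0.1 μg/mL E. coli O111:B4 LPS for 4 hr. Supernatant TNFα and IL-8 measured by sandwich ELISA; REC50 (TNFα) and IC50 (IL-8 inhibition vs vehicle) taken from concentration-response curves.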

The target in series [2] is T1, Recombinant, phosphorylated p38 MAPKγ (MAPK12:Invitrogen) (Homo sapiens, UniProt P53778).
T1 construct: purchased Invitrogen
T1 sequence (P53778 1-367): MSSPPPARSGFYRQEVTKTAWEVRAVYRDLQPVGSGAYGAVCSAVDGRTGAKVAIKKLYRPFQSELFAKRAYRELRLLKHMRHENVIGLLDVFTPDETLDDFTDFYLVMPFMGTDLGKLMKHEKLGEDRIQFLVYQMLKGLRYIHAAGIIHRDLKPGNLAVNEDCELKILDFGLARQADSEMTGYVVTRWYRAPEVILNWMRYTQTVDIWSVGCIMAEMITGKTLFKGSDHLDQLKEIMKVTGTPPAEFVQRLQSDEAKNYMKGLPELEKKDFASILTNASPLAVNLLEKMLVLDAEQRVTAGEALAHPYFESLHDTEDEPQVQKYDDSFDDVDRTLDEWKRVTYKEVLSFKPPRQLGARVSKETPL
Nature of the series: p38 MAPKγ enzyme inhibition assay (FRET, Z-LYTE). The note with it: 2 hr pre-incubation, ATP 100 μM; read-out: Enzyme Inhibition IC50 p38γ. Format: biochemical.
Protocol: The enzyme inhibitory activities of compounds disclosed herein were determined by fluorescence resonance energy transfer (FRET) using synthetic peptides labelled with both donor and acceptor fluorophores (Z-LYTE, Invitrogen Ltd., Paisley, UK). Recombinant, phosphorylated p38 MAPKγ (MAPK12:Invitrogen) was diluted in HEPES buffer, mixed with the test compound at the desired final concentrations and incubated for 2 hr at RT. The FRET peptide (2 μM) and ATP (100 μM) were added to the enzyme/compound mixture and incubated for 1 hr. Development reagent (protease) was added for 1 hr prior to detection in a fluorescence microplate reader (Varioskan® Flash, ThermoFisher Scientific). The site-specific protease cleaves non-phosphorylated peptide only and eliminates the FRET signal. Phosphorylation levels of each reaction were calculated using the ratio of coumarin emission (donor) over fluorescein emission (acceptor) for which high ratios indicate high phosphorylation and low ratios indicate low phosphorylation levels.

Series [3] has as its system LPS-induced TNFα release in d-U937 cells. Nature of the series: LPS-induced TNFα release in d-U937 cells. Type of series: cell-based. Conditions: Homo sapiens, dU937, 4 h; read-out: LPS/TNFα REC50 d-U937. In short, it runs like this: as §1
Series [4] has as its target T2, p38 MAPKα isoform (MAPK14: Invitrogen) (Homo sapiens, UniProt Q16539).
T2 construct: purchased Invitrogen
Nature of the series: p38 MAPKα enzyme inhibition assay (FRET, Z-LYTE, via MAPKAP-K2 activation). Format: biochemical. Conditions: 2 hr pre-incubation, ATP 10.0 μM; read-out: Enzyme Inhibition IC50 p38α.

Series [5] concerns Poly I:C-induced ICAM-1 expression in BEAS2B cells. Nature of the series: Poly I:C-induced ICAM-1 induction in BEAS2B cells. Type of series: cell-based. The note with it: Homo sapiens, BEAS-2B, poly I:C 1 μg/mL, 18 hr, read-out: PolyI:C/ICAM1 IC50 BEAS2B. In short, it runs like this:
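Human bronchial epithelial BEAS2B cells were pre-incubated with compound for 2 h, then transfected with poly I:C at 1 μg/mL. Surface ICAM-1 was measured 18 h later by cell-based ELISA (OD450–655), normalised to crystal-violet cell number (OD595). IC50 was taken from the concentration–response curve against vehicle.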

Series [6] deals with LPS-induced neutrophil accumulation in Balb/c mice. Nature of the series: LPS-induced neutrophil accumulation in mice. Format: in vivo. The note with it: for % inhibition of Influx / Neutrophil numbers in BAL / % inhibition (neutrophil numbers in BAL): 0.2 mg/mL intra tracheal; for inhibitory effects versus neutrophil accumulation into the BALF (in words): dosed 8 hr prior to LPS challenge. Here is the method:
LPS-Induced Neutrophil Accumulation in Mice
Non-fasted Balb/c mice were dosed by the intra tracheal route with either vehicle, or the test substance at the indicated times (within the range 2-12 hr) before stimulation of the inflammatory response by application of an LPS challenge. At T=0, mice were placed into an exposure chamber and exposed to LPS. After a further 8 hr the animals were anesthetized, their tracheas cannulated and BALF extracted by infusing and then withdrawing from their lungs 1.0 mL of PBS via the tracheal catheter. Total and differential white cell counts in the BALF samples were measured using a Neubaur haemocytometer. Cytospin smears of the BALF samples were prepared by centrifugation at 200 rpm for 5 min at RT and stained using a DiffQuik stain system (Dade Behring). Cells were counted using oil immersion microscopy.

Series [7] deals with Differentiated U937 cells. Nature of the series: MTT assay: cell viability on exposure to test compounds. Format: cell-based, human. The note with it: percentage loss of cell viability vs vehicle; for MTT Assay (Viability) 4 h d-U937: 5% FCS; for MTT Assay (Viability) 24 h d-U937: 10% FCS. In short, it runs like this: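 Differentiated U937 cells were pre-incubated with compound for either 4 h in 5% FCS or 24 h in 10% FCS, then given MTT for 1 h. Formazan was dissolved in DMSO and read at 550 nm. Viability loss is expressed as % versus 0.5% DMSO vehicle, so an apparent gain appears as a negative value.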
(Tetrazolium dyes change colour on reduction, which living cells bring about.)

The test system of series [8] is LPS-induced TNFα release in THP-1 cells. Nature of the series: LPS-induced TNFα release in THP-1 cells. Format: cell-based. The note with it: Homo sapiens, 3 μg/mL LPS, 4 hr. Put shortly:
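Human monocytic cells were stimulated with 3 μg/mL E. coli LPS for 4 hr. Supernatant TNFα was measured by sandwich ELISA. Inhibition was taken relative to vehicle control, and IC50 derived from the concentration-response curve.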

T2 sequence (Q16539 whole entry, canonical isoform): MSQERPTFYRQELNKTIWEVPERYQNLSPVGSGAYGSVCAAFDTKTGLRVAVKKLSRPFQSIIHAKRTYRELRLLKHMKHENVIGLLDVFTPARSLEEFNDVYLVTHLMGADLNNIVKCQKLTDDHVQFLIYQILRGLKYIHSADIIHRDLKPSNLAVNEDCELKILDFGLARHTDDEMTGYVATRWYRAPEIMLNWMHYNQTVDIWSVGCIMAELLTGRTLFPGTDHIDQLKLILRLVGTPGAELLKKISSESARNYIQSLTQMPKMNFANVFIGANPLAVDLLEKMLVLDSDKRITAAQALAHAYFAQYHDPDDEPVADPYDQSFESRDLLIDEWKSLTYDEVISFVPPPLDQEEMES

For the compound `COCC(=O)Nc1cc(Oc2ccc(NC(=O)Nc3cc(C(C)(C)C)nn3-c3ccc(OC)nc3)c3ccccc23)ccn1` [Example 16, N-(4-(4-(3-(3-tert-Butyl-1-(6-methoxypyridin-3-yl)-1H-pyrazol-5-yl)ureido)naphthalen-1-yloxy)pyridin-2-yl)-2-methoxyacetamide], the IC50 in series [1] is 29.6 nM; in series [2], 54.3 nM; in series [4] it was 4.5 nM; in series [5] it was 8.1 nM; in series [8] it was 1.2 nM. In series [3], the EC50 is 1.2 nM. For the same compound, in series [6] (8 h pre-dose before LPS), the “% inhibition of Influx” value was 55%. Besides, the “Neutrophil numbers in BAL” value in series [6] (8 h pre-dose before LPS) is 6.3 ± 1.2 × 10^5/mL. Also, in series [6], the “inhibitory effects versus neutrophil accumulation into the BALF (in words)” value is reported as “inhibitory effects; also recorded: particularly marked”. The “MTT Assay (Viability) 4 h d-U937” value in series [7] (1 μg/mL) is reported as −16.7%. In addition, in series [7] (1 μg/mL), the “MTT Assay (Viability) 24 h d-U937” value is given as −6.2%.
For the compound `CC(C)(C)c1cc(NC(=O)Nc2ccc(Oc3ccnc(NC(N)=O)c3)c3ccccc23)n(-c2ccc(S(C)(=O)=O)cc2)n1` [Example 45, 1-(3-tert-butyl-1-(4-(methylsulfonyl)phenyl)-1H-pyrazol-5-yl)-3-(4-((2-ureidopyridin-4-yl)oxy)naphthalen-1-yl)urea], the IC50 in series [1] came out at 0.5 nM; in series [2], 48.7 nM; in series [4], 18.9 nM; in series [5] it was 30.9 nM; in series [8], 2.2 nM. The EC50 in series [3] was 0.3 nM. Besides, the “% inhibition of Influx” value in series [6] (8 h pre-dose before LPS) is on record as 24%. In addition, in series [6] (8 h pre-dose before LPS), the “Neutrophil numbers in BAL” value is reported as 13.2 ± 2.2 × 10^5/mL. In series [6], the “inhibitory effects versus neutrophil accumulation into the BALF (in words)” value was “inhibitory effects”. For the same compound, in series [7] (1 μg/mL), the “MTT Assay (Viability) 4 h d-U937” value is given as −14.4%. The “MTT Assay (Viability) 24 h d-U937” value in series [7] (1 μg/mL) is 13.9%.
In the case of `CCNC(=O)Nc1cc(C(=O)c2ccc(NC(=O)Nc3cc(C(C)(C)C)nn3-c3ccc(C)cc3)c3ccccc23)ccn1` [Example 67, 1-(3-tert-butyl-1-p-tolyl-1H-pyrazol-5-yl)-3-(4-(2-(3-ethylureido)isonicotinoyl)naphthalen-1-yl)urea], the IC50 was 21.9 nM in series [1]; 443 nM in series [2]; 18.8 nM in series [4]; 13.8 nM in series [5]; 6.5 nM in series [8]. The EC50 in series [3] turned out to be 17.6 nM. Moreover, the “% inhibition (neutrophil numbers in BAL)” value in series [6] (2 hr pre-dose before LPS) was 40%; in series [6] (12 h pre-dose before LPS) it was 20%. In addition, the “Neutrophil numbers in BAL” value in series [6] (2 hr pre-dose before LPS) was 10.5 ± 1.5 × 10^5/ml; in series [6] (12 h pre-dose before LPS), 14.2 ± 1.7 × 10^5/ml. In addition, the “inhibition of neutrophil accumulation into the BALF (in words)” value in series [6] (administered 2 and 12 hr prior to LPS challenge) was “marked and long-lasting inhibition”. Besides, the “MTT Assay (Viability) 4 h d-U937” value in series [7] (10 μg/mL) is recorded as −9.9^b %. Also, the “MTT Assay (Viability) 24 h d-U937” value in series [7] (10 μg/mL) is reported as 8.8^b %.
